The text below walks through data of US8613914B2, “Peptidomimetic sulfamide compounds and antiviral uses thereof” (Novartis AG, priority 2009, dated 2013).

HCV NS3-4A serine protease (full-length NS3-4A protein), sequence (P26664 1027-1657): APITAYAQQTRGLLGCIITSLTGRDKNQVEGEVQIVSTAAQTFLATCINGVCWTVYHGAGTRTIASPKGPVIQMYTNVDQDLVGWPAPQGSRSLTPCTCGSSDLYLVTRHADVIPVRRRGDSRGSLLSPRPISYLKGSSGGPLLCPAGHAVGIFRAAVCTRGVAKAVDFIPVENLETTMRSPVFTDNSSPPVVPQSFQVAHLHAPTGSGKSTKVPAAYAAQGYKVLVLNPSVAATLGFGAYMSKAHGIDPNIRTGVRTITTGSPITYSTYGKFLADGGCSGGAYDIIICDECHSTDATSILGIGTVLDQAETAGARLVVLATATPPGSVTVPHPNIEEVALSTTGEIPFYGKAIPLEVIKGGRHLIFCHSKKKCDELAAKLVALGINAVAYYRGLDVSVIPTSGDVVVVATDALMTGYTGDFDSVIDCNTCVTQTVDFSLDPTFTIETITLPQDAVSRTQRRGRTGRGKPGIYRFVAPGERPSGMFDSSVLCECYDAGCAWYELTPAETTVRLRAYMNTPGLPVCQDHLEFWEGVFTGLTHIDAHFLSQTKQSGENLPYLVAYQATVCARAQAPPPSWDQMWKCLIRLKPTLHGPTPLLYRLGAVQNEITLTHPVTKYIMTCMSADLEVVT
HCV NS3-4A serine protease (full-length NS3-4A protein), sequence (P26664 1658-1711 partner): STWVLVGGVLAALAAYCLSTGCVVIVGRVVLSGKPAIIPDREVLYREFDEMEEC

The target of this test is HCV NS3-4A serine protease (full-length NS3-4A protein) (Hepatitis C virus genotype 1a (isolate 1) (HCV), UniProt P26664). The experiment in a line: HCV NS3-4A protease assay. The conditions noted are these: strain HCV-1, fluorogenic peptide substrate, read-out: Protease assay Ex. 12 IC50. Type of test: biochemical, HCV genotype 1a. The method, then:
The inhibitory activity of certain compounds of Table A against HCV NS3-4A serine protease is determined in a homogenous assay using the full-length NS3-4A protein (genotype 1a, strain HCV-1) and a commercially available internally-quenched fluorogenic peptide substrate as described by Taliani, M., et al. 1996 Anal. Biochem. 240:60-67, which is incorporated by reference in its entirety.
For the compound `C=C[C@@H]1C[C@]1(NC(=O)[C@@H]1C[C@@]2(CN1C(=O)[C@@H](NC(=O)[C@@H](NC(=O)[C@@H]1CCCN1C(C)C)C1CCCCC1)C(C)(C)C)C(C)(C)C21CCC1)C(=O)NS(=O)(=O)N(C)CC` [Compound 91, (5R,8S)-7-[(2S)-2-{[(2S)-2-cyclohexyl-2-({[(2S)-1-isopropylpyrrolidin-2-yl]carbonyl}amino)acetyl]amino}-3,3-dimethylbutanoyl]-N-[(1R,2S)-1-({[ethyl(methyl)amino]sulfonyl}carbamoyl)-2-vinylcyclopropyl]-10,10-dimethyl-7-azadispiro[3.0.4.1]decane-8-carboxamide], the IC50 stood at 5 nM. The result for `C=C[C@@H]1C[C@]1(NC(=O)[C@@H]1C[C@@]2(CN1C(=O)[C@@H](NC(=O)[C@@H](NC(=O)[C@@H]1CCCCN1C(C)C)C1CCCCC1)C(C)(C)C)C(C)(C)C21CCC1)C(=O)NS(=O)(=O)N(CC)C(C)C` [Compound 110, (5R,8S)-7-[(2S)-2-{[(2S)-2-cyclohexyl-2-({[(2S)-1-isopropylpiperidin-2-yl]carbonyl}amino)acetyl]amino}-3,3-dimethylbutanoyl]-N-[(1R,2S)-1-({[ethyl(isopropyl)amino]sulfonyl}carbamoyl)-2-vinylcyclopropyl]-10,10-dimethyl-7-azadispiro[3.0.4.1]decane-8-carboxamide] reads 8 nM; that for `C=C[C@@H]1C[C@]1(NC(=O)[C@@H]1C[C@@]2(CN1C(=O)[C@@H](NC(=O)[C@@H](NC(=O)C(C)(C)N1CCCCC1)C1CCCCC1)C(C)(C)C)C(C)(C)C21CCC1)C(=O)NS(=O)(=O)N1CCCC1` [Compound 25, (5R,8S)-7-[(2S)-2-({(2S)-2-cyclohexyl-2-[(2-methyl-2-piperidin-1-ylpropanoyl)amino]acetyl}amino)-3,3-dimethylbutanoyl]-10,10-dimethyl-N-{(1R,2S)-1-[(pyrrolidin-1-ylsulfonyl)carbamoyl]-2-vinylcyclopropyl}-7-azadispiro[3.0.4.1]decane-8-carboxamide], 8 nM; that for `C=C[C@@H]1C[C@]1(NC(=O)[C@@H]1C[C@@]2(CN1C(=O)[C@@H](NC(=O)[C@@H](NC(=O)[C@@H]1CCCN1CC)C1CCCCC1)C(C)(C)C)C(C)(C)C21CCC1)C(=O)NS(=O)(=O)N1CCCCC1` [Compound 95, (5R,8S)-7-[(2S)-2-{[(2S)-2-cyclohexyl-2-({[(2S)-1-ethylpyrrolidin-2-yl]carbonyl}amino)acetyl]amino}-3,3-dimethylbutanoyl]-10,10-dimethyl-N-{(1R,2S)-1-[(piperidin-1-ylsulfonyl)carbamoyl]-2-vinylcyclopropyl}-7-azadispiro[3.0.4.1]decane-8-carboxamide], 5 nM. As for `C=C[C@@H]1C[C@]1(NC(=O)[C@@H]1C[C@@]2(CN1C(=O)[C@@H](NC(=O)C(Nc1cccnc1)C(C)(C)C)C(C)(C)C)C(C)(C)C21CCC1)C(=O)NS(=O)(=O)N1CCCC1` (stereo partly drawn) [Compound 51, (5R,8S)-7-[(2S)-2-{[3,3-dimethyl-2-(pyridin-3-ylamino)butanoyl]amino}-3,3-dimethylbutanoyl]-10,10-dimethyl-N-{(1R,2S)-1-[(pyrrolidin-1-ylsulfonyl)carbamoyl]-2-vinylcyclopropyl}-7-azadispiro[3.0.4.1]decane-8-carboxamide], the IC50 was 1150 nM. For `C=C[C@@H]1C[C@]1(NC(=O)[C@@H]1C[C@@]2(CN1C(=O)[C@@H](NC(=O)[C@@H](NC(=O)[C@@H]1CCCCN1CC)c1ccccc1)C(C)(C)C)C(C)(C)C21CCC1)C(=O)NS(=O)(=O)N1CCCC1` [Compound 103, (5R,8S)-7-[(2S)-2-{[(2S)-2-({[(2S)-1-ethylpiperidin-2-yl]carbonyl}amino)-2-phenylacetyl]amino}-3,3-dimethylbutanoyl]-10,10-dimethyl-N-{(1R,2S)-1-[(pyrrolidin-1-ylsulfonyl)carbamoyl]-2-vinylcyclopropyl}-7-azadispiro[3.0.4.1]decane-8-carboxamide], the IC50 came to 20 nM.

For the compound `C=C[C@@H]1C[C@]1(NC(=O)[C@@H]1C[C@@]2(CN1C(=O)[C@@H](NC(=O)[C@@H](NC(=O)[C@@H]1CCCCN1C(C)C)C1(C)CCCCC1)C(C)(C)C)C(C)(C)C21CCC1)C(=O)NS(=O)(=O)N1CCCC1` [Compound 135, (5R,8S)-7-[(2S)-2-{[(2S)-2-({[(2S)-1-isopropylpiperidin-2-yl]carbonyl}amino)-2-(1-methylcyclohexyl)acetyl]amino}-3,3-dimethylbutanoyl]-10,10-dimethyl-N-{(1R,2S)-1-[(pyrrolidin-1-ylsulfonyl)carbamoyl]-2-vinylcyclopropyl}-7-azadispiro[3.0.4.1]decane-8-carboxamide], the IC50 came out at 4.5 nM. `C=C[C@@H]1C[C@]1(NC(=O)[C@@H]1C[C@@]2(CN1C(=O)[C@@H](NC(=O)[C@@H](NC(=O)[C@@H]1CCN1C(C)C)C(C)(C)C)C(C)(C)C)C(C)(C)C21CCC1)C(=O)NS(=O)(=O)N1CCCC1` [Compound 12, (5R,8S)-7-[(2S)-2-{[(2S)-2-({[(2S)-1-isopropylazetidin-2-yl]carbonyl}amino)-3,3-dimethylbutanoyl]amino}-3,3-dimethylbutanoyl]-10,10-dimethyl-N-{(1R,2S)-1-[(pyrrolidin-1-ylsulfonyl)carbamoyl]-2-vinylcyclopropyl}-7-azadispiro[3.0.4.1]decane-8-carboxamide]: the IC50 was 40 nM. As for `[2H]C([2H])([2H])C([2H])([2H])N1CCC[C@H]1C(=O)NC(C(=O)N[C@H](C(=O)N1C[C@]2(C[C@H]1C(=O)N[C@]1(C(=O)NS(=O)(=O)N3CCCC3)C[C@H]1C=C)C(C)(C)C21CCC1)C(C)(C)C)C1CCCCC1` (stereo partly drawn) [Compound 138, (5R,8S)-7-[(2S)-2-{[(2S)-2-cyclohexyl-2-({[(2S)-1-d5-ethylpyrrolidin-2-yl]carbonyl}amino)acetyl]amino}-3,3-dimethylbutanoyl]-10,10-dimethyl-N-{(1R,2S)-1-[(pyrrolidin-1-ylsulfonyl)carbamoyl]-2-vinylcyclopropyl}-7-azadispiro[3.0.4.1]decane-8-carboxamide-d5], the IC50 amounted to 3 nM. The result for `C=C[C@@H]1C[C@]1(NC(=O)[C@@H]1C[C@@]2(CN1C(=O)[C@@H](NC(=O)[C@@H](NC(=O)[C@@H]1CCCCN1C(C)C)C1CCCCC1)C(C)(C)C)C(C)(C)C21CCC1)C(=O)NS(=O)(=O)N(C)CCOC` [Compound 56, (5R,8S)-7-[(2S)-2-{[(2S)-2-cyclohexyl-2-({[(2S)-1-isopropylpiperidin-2-yl]carbonyl}amino)acetyl]amino}-3,3-dimethylbutanoyl]-N-[(1R,2S)-1-({[(2-methoxyethyl)(methyl)amino]sulfonyl}carbamoyl)-2-vinylcyclopropyl]-10,10-dimethyl-7-azadispiro[3.0.4.1]decane-8-carboxamide] reads 8 nM.

For the compound `C=C[C@@H]1C[C@]1(NC(=O)[C@@H]1C[C@@]2(CN1C(=O)[C@@H](NC(=O)[C@@H](NC(=O)[C@@H]1CCCCN1C(C)C)C1CCCCC1)C(C)(C)C)C(C)(C)C21CCC1)C(=O)NS(=O)(=O)N1CCCCC1` [Compound 113, (5R,8S)-7-[(2S)-2-{[(2S)-2-cyclohexyl-2-({[(2S)-1-isopropylpiperidin-2-yl]carbonyl}amino)acetyl]amino}-3,3-dimethylbutanoyl]-10,10-dimethyl-N-{(1R,2S)-1-[(piperidin-1-ylsulfonyl)carbamoyl]-2-vinylcyclopropyl}-7-azadispiro[3.0.4.1]decane-8-carboxamide], the IC50 is 3.5 nM.

`C=C[C@@H]1C[C@]1(NC(=O)[C@@H]1C[C@@]2(CN1C(=O)[C@@H](NC(=O)[C@@H](NC(=O)[C@H]1CCCN1CC)C1CCCCC1)C(C)(C)C)C(C)(C)C21CCC1)C(=O)NS(=O)(=O)N1CCCC1` [Compound 38, (5R,8S)-7-[(2S)-2-{[(2S)-2-cyclohexyl-2-({[(2R)-1-ethylpyrrolidin-2-yl]carbonyl}amino)acetyl]amino}-3,3-dimethylbutanoyl]-10,10-dimethyl-N-{(1R,2S)-1-[(pyrrolidin-1-ylsulfonyl)carbamoyl]-2-vinylcyclopropyl}-7-azadispiro[3.0.4.1]decane-8-carboxamide]: the IC50 turned out to be 3.5 nM. The result for `C=C[C@@H]1C[C@]1(NC(=O)[C@@H]1C[C@@]2(CN1C(=O)[C@@H](NC(=O)[C@@H](NC(=O)[C@@H]1CCCCN1C(C)C)C1CCCCC1)C(C)(C)C)C(C)(C)C21CCC1)C(=O)NS(=O)(=O)N(C)C(C)C` [Compound 108, (5R,8S)-7-[(2S)-2-{[(2S)-2-cyclohexyl-2-({[(2S)-1-isopropylpiperidin-2-yl]carbonyl}amino)acetyl]amino}-3,3-dimethylbutanoyl]-N-[(1R,2S)-1-({[isopropyl(methyl)amino]sulfonyl}carbamoyl)-2-vinylcyclopropyl]-10,10-dimethyl-7-azadispiro[3.0.4.1]decane-8-carboxamide] reads 6 nM.

As to `C=C[C@@H]1C[C@]1(NC(=O)[C@@H]1C[C@@]2(CN1C(=O)[C@@H](NC(=O)[C@@H](NC(=O)c1cc3cc(OC)ccc3[nH]1)C1CCCCC1)C(C)(C)C)C(C)(C)C21CCC1)C(=O)NS(=O)(=O)N1CCCC1` [Compound 176, (5R,8S)-7-{(2S)-2-[(cyclohexyl{[(5-methoxy-1H-indol-2-yl)carbonyl]amino}acetyl)amino]-3,3-dimethylbutanoyl}-10,10-dimethyl-N-{(1R,2S)-1-[(pyrrolidin-1-ylsulfonyl)carbamoyl]-2-vinylcyclopropyl}-7-azadispiro[3.0.4.1]decane-8-carboxamide], the 50% inhibitory concentration (IC50) came to 25 nM. The result for `C=C[C@@H]1C[C@]1(NC(=O)[C@@H]1C[C@@]2(CN1C(=O)[C@@H](NC(=O)[C@@H](NC(=O)[C@@H](OC)c1ccccc1)C1CCCCC1)C(C)(C)C)C(C)(C)C21CCC1)C(=O)NS(=O)(=O)N1CCCC1` [Compound 193, (5R,8S)-7-{(2S)-2-[(cyclohexyl{[(2S)-2-methoxy-2-phenylacetyl]amino}acetyl)amino]-3,3-dimethylbutanoyl}-10,10-dimethyl-N-{(1R,2S)-1-[(pyrrolidin-1-ylsulfonyl)carbamoyl]-2-vinylcyclopropyl}-7-azadispiro[3.0.4.1]decane-8-carboxamide] reads 25 nM.

As usually defined, the IC50 is the concentration that inhibits the measured activity by half.
